According to US9326953B2, “Method and system for systemic delivery of growth arresting, lipid-derived bioactive compounds” (priority 2003, dated 2016):

What was measured:
[1] = Toxicity after intravenous injection; type: in vivo; settings: injection at 10 mg/kg
MDA cells [2] = experiment: TUNEL staining of cleaved DNA; type: cell-based, Human
Description: An investigation to determine whether C6-dependent growth inhibition correlates with enhanced apoptosis was undertaken. To confirm that C6 delivery leads to MDA cell apoptosis, TUNEL analysis (Upstate Biotechnology, Lake Placid, N.Y.) was performed, which stains cleaved DNA, a hallmark of cellular apoptosis (FIG. 7A).

MDA cells [3] = experiment: [3H]thymidine cell proliferation assay; type: cell-based, Human; settings: [3H]thymidine incorporation, 10% FBS for 12 h of treatment; read-out: IC50 of C6, inhibition of MDA cell proliferation
Description: To determine the utility of conventional lipid formulations for the delivery of short-chain ceramide to MDA cells, a [^3H]thymidine proliferation assay was performed. Briefly, MDA cells were seeded at 3.5×10^4 cells/well in 24-well plates and grown overnight prior to 24 h of serum starvation. At hour 12 of serum starvation, cells were treated with liposomal or nonliposomal C6 for the remainder of serum starvation. Following serum starvation, media was then supplemented with FBS (10% final concentration) for an additional 12 h, and cellular proliferation was assayed with the addition of 0.5 mCi/ml [^3H]thymidine for the final 4 h of treatment. Cells were washed once with cold PBS and then twice with 10% trichloric acetic acid for 10 min. Cells were solubilized with 0.3 N NaOH, and [^3H]thymidine incorporation into acid-insoluble DNA was assessed with a scintillation counter.

## CCCCCCCCCCCCC/C=C/[C@@H](O)[C@H](CO)NC(=O)CCCCC [nonliposomal C6, D-erythro-hexanoyl-sphingosine]
[1]
  mice killed: 50%
MDA cells [2]; 20 μM, 16 h of treatment
  DNA fragmentation (TUNEL) at 16 h: induced DNA fragmentation
MDA cells [2]; cycling, serum-fed MDA cells, 8 h
  DNA fragmentation (TUNEL) at 8 h: no DNA fragmentation
MDA cells [3]
  IC50: 15 µM
